pIC50: −log10 of the molar value. “Also recorded” adds a separate entry of the source. Blank lines part the entries; values can stand above or below the compound they belong to.
How the values were obtained:
[1] = tested on: H838 NRF2-ARE-Fluc stable cell line; test: H838 Nrf2 assay: NRF2-ARE firefly luciferase reporter gene assay; format: cell-based; conditions: Homo sapiens, NCI-H838, read-out: Potency of inhibition, H838
Description: H838 is a NSCLC cell line with LOF Keap1 activity and constitutive translocation of NRF2 into the nucleus. A firefly luciferase reporter construct driven by a minimal promoter of NRF2-specific ARE is stably expressed in the H838 cells. This cell line was used as a confirmation assay to make sure hits identified from primary screening and that passed counterscreen assays worked in different cell types with a constitutively active NRF2 pathway (deficiency in Keap1).
This assay was very similar to the primary assay except that the cell line was changed. […] The final concentration of DMSO was maintained at 0.46%. Control compounds Budesonide and Staurosporine were both added at a concentration of 2 mM and Budesonide was also added as a 1:10 titration, starting at 200 μM, to achieve dose-response. After an 18-24 hour incubation at 37° C., 95% humidity, and 5% CO2, 1 μL of 5× CellTiter-Fluor non-lytic cell viability assay reagent (Promega, Madison Wis.) was added into the each well of the plates. The plates were then incubated for 30 minutes at room temperature before they were read on a ViewLux plate imager (Perkin Elmer, Waltham Mass.) using an excitation wavelength of 405 nm and an emission wavelength of 525 nm.
Representative compounds were assayed to assess the potency of inhibition in an A549 NRF2-ARE-Fluc stable cell line (A549 Nrf2 assay), in an H838 NRF2-ARE-Fluc stable cell line (H838 Nrf2 assay), and in an H1437 NRF2-ARE-Fluc stable cell line (H1437 Nrf2 assay) (see Table 3).

osteosarcoma cells = test: Clonogenic assay in osteosarcoma cells; format: cell-based; conditions: for Growth of osteosarcoma cells, single agent: single agents
Description: (§1) For the clonogenic assays, 1,000 cells/well were plated in a 6-well plate. The next day, the cells were treated with vehicle (DMSO), Nrf2 inhibitor, a chemotherapeutic drug, or a combination of Nrf2 and chemotherapeutic drugs for 48 hrs. The drug containing media was then replaced with regular growth media and the cells were incubated for an additional 10 days. At the end of incubation period, the colonies were stained with Crystal Violet and imaged.

H460 lung cancer cells = test: Clonogenic assay in H460 lung cancer cells; format: cell-based; conditions: for Cytotoxicity of chemotherapeutic drugs in combination with the compound, clonogenic assay: H460 cells, combination with chemotherapeutic drug
Description: (§2) (A) H460, a NSCLC with a point mutation in KEAP1, is more sensitive to compound 4 than H460-KEAP1 Knock-in H460 cells expressing WT KEAP1. The cells were incubated with the inhibitor for 48 h. Colonies were stained with crystal violet staining and manually counted. (B-C) A549 and H460 cells were treated with different concentrations of paclitaxel, doxorubicin and carboplatin singly or in combination with compound 4 for 72 h. At the end of treatment, regular growth media was added and cells were further incubated for 8-10 days and stained with crystal violet. […] Cells treated with Chemo drug alone or a combination of compound 4 and chemo drug were incubated with luminogenic caspase substrate and change in luminescence was measured. Caspase activity was normalized to the number of viable cells using CellTiter-Blue assay.
as §1

[2] = tested on: mRNA expression of Nrf2 and its downstream target genes, GCLm and NQO1, H1437 cells; test: Real time RT-PCR of Nrf2 and downstream target genes in H1437 cells; format: cell-based
Description: For the real time reverse transcription polymerase chain reaction (RT-PCR) assay, cells were treated with Nrf2 inhibitors for 36-48 hrs, followed by total RNA isolation. The mRNA expression of Nrf2 and its downstream target genes, GCLm and NQO1 was measured by RT-PCR. (NC means no significant change in gene expression in comparison with vehicle group; M represents the concentration of drug used in the gene expression studies and it is twice the IC50 values generated from primary screening with A549-ARE reporter cell lines).

[3] = tested on: orthotopic lung tumor model (large cell model); test: Orthotopic lung tumor model (large cell model); format: in vivo, Mice; conditions: two weeks post-treatment; single agent and combination with carboplatin
Description: For each group, pretreatment available lung volume was defined as 100% and compared with post-treatment lung volumes.

[4] = tested on: Caspase 3/7 activity, H460 cells; test: Caspase 3/7 activity in H460 cells; format: cell-based; conditions: combination of compound and chemo drug
Description: as §2

[5] = tested on: Ewing sarcoma cells (A4573); test: Soft agar colony assay in Ewing sarcoma cells; format: cell-based; conditions: 72 h
Description: (A) Ewing sarcoma cells (A4573) cells were on soft agar and treated with doxorubicin (2 nM) singly or in combination with compound 4 (10 μM) for 72 h. At the end of treatment, regular growth media was added and cells were further incubated for 8-10 days and colonies were stained with crystal violet and counted. (B) Rhabdomyosarcoma cells (Rh30) cells were on soft agar and treated with doxorubicin (2 nM) and etoposide (5-nM) singly or in combination with compound 4 (10 μM) for 72 h. At the end of treatment, regular growth media was added and cells were further incubated for 8-10 days and colonies were stained with crystal violet and counted;

[6] = tested on: orthotopic lung tumor model; test: Orthotopic lung tumor model, NSCLC xenograft; format: in vivo, Mice; conditions: three weeks post-treatment; single agent and combination with carboplatin
Description: A549 cells were injected in the flanks of athymic nude mice and once tumor volume reached 50-100 mm^3, treatment was initiated. Vehicle, carboplatin (5 mg/kg daily Monday to Friday), compound 4 (30 mg/kg daily Monday to Friday) or a combination of compound 4 and carboplatin was administered for three weeks. Values represent tumor volume ±s.e.m. for all groups (A). […] Tumors were excised and weight at the end of treatment period. […] For each group, pretreatment available lung volume was defined as 100% and compared with post-treatment lung volumes. Mice in the vehicle treated group died at 3 weeks;

pIC50 [1]: > 5.30
SMILES: O=C(Nc1ncc(Cc2ccc(C(F)(F)F)cc2)s1)c1ccc(-c2cccc([N+](=O)[O-])c2)o1 [Compound 1]
Growth of osteosarcoma cells, combination with doxorubicin (osteosarcoma cells): suppressed the growth of osteosarcoma cells
Growth of osteosarcoma cells, single agent (osteosarcoma cells): suppressed the growth of osteosarcoma cells

pIC50 [1]: > 5.30
SMILES: CC1(C)CC2CC(C)(CN2S(=O)(=O)c2ccc(C(=O)Nc3ccc(Cl)c(S(=O)(=O)N4CCOCC4)c3)cc2)C1 (stereo not shown) [compound 3]
Cytotoxicity of chemotherapeutic drugs in combination with the compound, clonogenic assay (H460 lung cancer cells): enhance the cytotoxicity of standard care chemotherapeutic drugs
Nrf2 (and GCLm, NQO1) expression, real time PCR based validation [2]: inhibit Nrf2 expression
Growth of osteosarcoma cells, combination with doxorubicin (osteosarcoma cells): suppressed the growth of osteosarcoma cells
Growth of osteosarcoma cells, single agent (osteosarcoma cells): suppressed the growth of osteosarcoma cells

pIC50 [1]: 4.60 to 5.30
SMILES: Cc1ccccc1C(=O)N1CCc2cc(-c3nc(NC(=O)Cc4ccc5c(c4)OCO5)sc3C)ccc21 [compound 4]
Tumor free lung volume, orthotopic lung tumor model [3]: shows anti-tumor efficacy as a single agent and in combination with carboplatin
Selective toxicity: H460 (KEAP1 point mutation) versus H460-KEAP1 Knock-in cells expressing WT KEAP1 (H460 lung cancer cells; 48 h, colonies counted): selectively toxic to cells with KEAP1 mutations
Cytotoxicity of chemotherapeutic drugs in combination with the compound, clonogenic assay (H460 lung cancer cells): enhance the cytotoxicity of the chemotherapeutic drug paclitaxel; also recorded: potentiates the toxicity of standard care chemotherapy drugs
Caspase 3/7 activity [4]: increased Caspase 3/7 activity
Colony growth of A4573 cells on soft agar, combination ([5]; 10 μM with doxorubicin (2 nM)): potentiates the cytotoxicity of standard care chemotherapy drugs
Colony growth of A4573 cells on soft agar, single agent ([5]; 10 μM): significant growth inhibitory activity as single agent
Nrf2 (and GCLm, NQO1) expression, real time PCR based validation [2]: significant reduction in Nrf2, GCLm, and NQO1 expression
Growth of osteosarcoma cells, combination with doxorubicin (osteosarcoma cells): suppressed the growth of osteosarcoma cells
Growth of osteosarcoma cells, single agent (osteosarcoma cells): suppressed the growth of osteosarcoma cells
Tumor free lung volume, orthotopic lung tumor model [6]: shows anti-tumor efficacy as a single agent and in combination with carboplatin

— US20160046616A1, “NRF2 SMALL MOLECULE INHIBITORS FOR CANCER THERAPY” (THE JOHNS HOPKINS UNIVERSITY, priority 2013, published 2016)
